Target: human GPR40 receptor (Homo sapiens, UniProt O14842)
Assay: IP1 accumulation measurements using the IPOne assay system
Format: cell-based
Conditions: 1321N1 cells stably expressing human GPR40 receptor; stimulated 1 h at 37° C.
Description: IP1 accumulation measurements using the IPOne assay system—1321N1 cells stably expressing human GPR40 receptor (Euroscreen, Belgium) are seeded 24 h before the assay in white 384-well plates in culture medium containing 10% FCS, 1% Na-Pyruvate and 400 μg/mL G418. IP1 is assayed according to the manufacturer's description (Cisbio Bioassays, France). In brief, the assay is started by substitution of the culture medium by stimulation buffer (Hepes 10 mM, CaCl2) 1 mM, MgCl2 0.5 mM, KCl 4.2 mM, NaCl 146 mM, glucose 5.5 mM and LiCl 50 mM, pH 7.4). Cells are stimulated for 1 h at 37° C., 5% CO2 by addition of the compounds that are diluted in stimulation buffer containing LiCl. Assays are stopped by adding HTRF-conjugates (IP1-d2 and Anti-IP1 cryptate Tb) and lysis buffer, provided by the manufacturer. After an incubation time of 1 h at room temperature plates are measured using an EnVision™, Perkin Elmer. The obtained fluorescence ratios at 665/615 […] are then used to calculate the pEC50 values using Assay Explorer 3.3 Software (Accelrys, Inc.) by interpolation using an IP1 reference curve and subsequent sigmoidal curve fitting allowing for a variable hill slope.

Sequence of human GPR40 receptor (O14842 whole entry): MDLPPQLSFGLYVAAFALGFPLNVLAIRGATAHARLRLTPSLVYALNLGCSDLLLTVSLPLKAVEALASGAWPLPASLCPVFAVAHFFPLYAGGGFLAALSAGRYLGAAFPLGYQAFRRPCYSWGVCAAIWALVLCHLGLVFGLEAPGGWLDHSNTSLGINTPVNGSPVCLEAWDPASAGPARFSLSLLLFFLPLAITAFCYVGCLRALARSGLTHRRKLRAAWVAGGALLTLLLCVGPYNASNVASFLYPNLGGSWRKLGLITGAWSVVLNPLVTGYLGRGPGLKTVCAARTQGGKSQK

SMILES	EC50
Cc1cc(OCCC(C)(C)O)cc(C)c1-c1cc(COc2cnc([C@H]3C[C@@H]3C(=O)O)cn2)c(F)cc1F [Example 1, (1 S,2S)-2-{5-[4,6-Difluoro-4′-(3-hydroxy-3-methyl-butoxy)-2′,6′-dimethyl-biphenyl-3-ylmethoxy]-pyrazin-2-yl}-cyclopropanecarboxylic acid]	6 nM
Cc1cc(-c2nnn(C)n2)cc(C)c1-c1cccc(COc2cnc([C@H]3C[C@@H]3C(=O)O)cn2)c1 [Example 2, (1 S,2S)-2-{5-[2′,6′-Dimethyl-4′-(2-methyl-2H-tetrazol-5-yl)-biphenyl-3-ylmethoxy]-pyrazin-2-yl}-cyclopropanecarboxylic acid]	3 nM
O=C(O)[C@H]1C[C@@H]1c1cnc(OCc2cccc(-c3ccccc3C(F)(F)F)c2)cn1 [Example 3, (1 S,2S)-2-[5-(2′-Trifluoromethyl-biphenyl-3-ylmethoxy)-pyrazin-2-yl]-cyclopropanecarboxylic acid]	24 nM
COc1cc(C)c(-c2cccc(COc3cnc([C@H]4C[C@@H]4C(=O)O)cn3)c2)c(C)c1 [Example 4, (1 S,2S)-2-[5-(4′-Methoxy-2′,6′-dimethyl-biphenyl-3-ylmethoxy)-pyrazin-2-yl]-cyclopropanecarboxylic acid]	12 nM
O=C(O)[C@H]1C[C@@H]1c1cnc(OCc2cccc(-c3ccc(-c4cnco4)cc3)c2)cn1 [Example 5, (1 S,2S)-2-[5-(4′-Oxazol-5-yl-biphenyl-3-ylmethoxy)-pyrazin-2-yl]-cyclopropane-carboxylic acid]	67 nM
Cc1cc(O[C@H]2CCOC2)cc(C)c1-c1cccc(COc2cnc([C@H]3C[C@@H]3C(=O)O)cn2)c1 [Example 6, (1 S,2S)-2-(5-{2′,6′-Dimethyl-4′-[(S)-(tetrahydro-furan-3-yl)oxy]-biphenyl-3-ylmethoxy}-pyrazin-2-yl)-cyclopropanecarboxylic acid]	10 nM
Cc1cc(OC2CCOCC2)cc(C)c1-c1cccc(COc2cnc([C@H]3C[C@@H]3C(=O)O)cn2)c1 [Example 7, (1 S,2S)-2-{5-[2′,6′-Dimethyl-4′-(tetrahydro-pyran-4-yloxy)-biphenyl-3-ylmethoxy]-pyrazin-2-yl}-cyclopropanecarboxylic acid]	8 nM
Cc1cc(OCCC(C)(C)O)cc(C)c1-c1cccc(COc2cnc([C@H]3C[C@@H]3C(=O)O)cn2)c1 [Example 8, (1 S,2S)-2-{5-[4′-(3-Hydroxy-3-methyl-butoxy)-2′,6′-dimethyl-biphenyl-3-ylmethoxy]-pyrazin-2-yl}-cyclopropanecarboxylic acid]	7 nM
Cc1cc(-c2ccc(=O)n(C)c2)cc(C)c1-c1cccc(COc2cnc([C@H]3C[C@@H]3C(=O)O)cn2)c1 [Example 9, (1 S,2S)-2-{5-[2′,6′-Dimethyl-4′-(1-methyl-6-oxo-1,6-dihydro-pyridin-3-yl)-biphenyl-3-ylmethoxy]-pyrazin-2-yl}-cyclopropanecarboxylic acid]	9 nM
Cc1cc(-c2cnccn2)cc(C)c1-c1cccc(COc2cnc([C@H]3C[C@@H]3C(=O)O)cn2)c1 [Example 10, (1 S,2S)-2-[5-(2′,6′-Dimethyl-4′-pyrazin-2-yl-biphenyl-3-ylmethoxy)-pyrazin-2-yl]-cyclopropanecarboxylic acid]	13 nM
Cc1cc(-c2ccnn2C)cc(C)c1-c1cccc(COc2cnc([C@H]3C[C@@H]3C(=O)O)cn2)c1 [Example 11, (1 S,2S)-2-{5-[2′,6′-Dimethyl-4′-(2-methyl-2H-pyrazol-3-yl)-biphenyl-3-ylmethoxy]-pyrazin-2-yl}-cyclopropanecarboxylic acid]	6 nM
Cc1cc(-c2nnn(CC(C)(C)O)n2)cc(C)c1-c1cccc(COc2cnc([C@H]3C[C@@H]3C(=O)O)cn2)c1 [Example 12, (1 S,2S)-2-(5-{4′-[2-(2-Hydroxy-2-methyl-propyl)-2H-tetrazol-5-yl]-2′,6′-dimethyl-biphenyl-3-ylmethoxy}-pyrazin-2-yl)-cyclopropanecarboxylic acid]	8 nM
CCc1cccc(CC)c1-c1cccc(COc2cnc([C@H]3C[C@@H]3C(=O)O)cn2)c1 [Example 13, (1 S,2S)-2-[5-(2′,6′-Diethyl-biphenyl-3-ylmethoxy)-pyrazin-2-yl]-cyclopropane-carboxylic acid]	20 nM
Cc1cc(OCC2CCCO2)cc(C)c1-c1ccc(F)c(COc2cnc([C@H]3C[C@@H]3C(=O)O)cn2)c1 (stereo partly drawn) [Example 14, (1 S,2S)-2-{5-[4-Fluoro-2′,6′-dimethyl-4′-(tetrahydro-furan-2-ylmethoxy)-biphenyl-3-ylmethoxy]-pyrazin-2-yl}-cyclopropanecarboxylic acid]	6 nM
O=C(O)[C@H]1C[C@@H]1c1cnc(OCc2cc(-c3c(Cl)cccc3Cl)ccc2F)cn1 [Example 15, (1 S,2S)-2-[5-(2′,6′-Dichloro-4-fluoro-biphenyl-3-ylmethoxy)-pyrazin-2-yl]-cyclopropanecarboxylic acid]	8 nM
Cc1cnc(-c2cc(C)c(-c3ccc(F)c(COc4cnc([C@H]5C[C@@H]5C(=O)O)cn4)c3)c(C)c2)nc1 [Example 16, (1 S,2S)-2-{5-[4-Fluoro-2′,6′-dimethyl-4′-(5-methyl-pyrimidin-2-yl)-biphenyl-3-ylmethoxy]-pyrazin-2-yl}-cyclopropanecarboxylic acid]	3 nM
COc1cc(-c2cc(C)c(-c3ccc(F)c(COc4cnc([C@H]5C[C@@H]5C(=O)O)cn4)c3)c(C)c2)ccn1 [Example 17, (1 S,2S)-2-{5-[4-Fluoro-4′-(2-methoxy-pyridin-4-yl)-2′,6′-dimethyl-biphenyl-3-ylmethoxy]-pyrazin-2-yl}-cyclopropanecarboxylic acid]	7 nM
Cc1cc(OCCCS(C)(=O)=O)cc(C)c1-c1ccc(F)c(COc2cnc([C@H]3C[C@@H]3C(=O)O)cn2)c1 [Example 18, (1 S,2S)-2-{5-[4-Fluoro-4′-(3-methanesulfonyl-propoxy)-2′,6′-dimethyl-biphenyl-3-ylmethoxy]-pyrazin-2-yl}-cyclopropanecarboxylic acid]	7 nM
Cc1cc(OCC2CCOCC2)cc(C)c1-c1ccc(F)c(COc2cnc([C@H]3C[C@@H]3C(=O)O)cn2)c1 [Example 19, (1 S,2S)-2-{5-[4-Fluoro-2′,6′-dimethyl-4′-(tetrahydro-pyran-4-ylmethoxy)-biphenyl-3-ylmethoxy]-pyrazin-2-yl}-cyclopropanecarboxylic acid]	6 nM
CC(C)c1ccccc1-c1ccc(F)c(COc2cnc([C@H]3C[C@@H]3C(=O)O)cn2)c1 [Example 20, (1 S,2S)-2-[5-(4-Fluoro-2′-isopropyl-biphenyl-3-ylmethoxy)-pyrazin-2-yl]-cyclopropanecarboxylic acid]	35 nM
CC(C)(O)CCOc1ccc(-c2cc(COc3cnc([C@H]4C[C@@H]4C(=O)O)cn3)ccc2C(F)(F)F)cc1 [Example 21, (1 S,2S)-2-{5-[4′-(3-Hydroxy-3-methyl-butoxy)-6-trifluoromethyl-biphenyl-3-ylmethoxy]-pyrazin-2-yl}-cyclopropanecarboxylic acid]	3 nM
Cc1nnc(-c2ccc(-c3cc(COc4cnc([C@H]5C[C@@H]5C(=O)O)cn4)ccc3C(F)(F)F)cc2)o1 [Example 22, (1 S,2S)-2-{5-[4′-(5-Methyl-[1,3,4]oxadiazol-2-yl)-6-trifluoromethyl-biphenyl-3-ylmethoxy]-pyrazin-2-yl}-cyclopropanecarboxylic acid]	4 nM

Reference: US20190381037A1, “Benzylaminopyridylcyclopropanecarboxylic acids, pharmaceutical compositions and uses thereof” (Boehringer Ingelheim International GmbH, priority 2017, published 2019)
